From patent US8124788B2, “Spirocyclic cyclohexane compounds with analgesic activity” (Gruenenthal GmbH, priority 2006, dated 2012)

These compounds were tested against T1, human μ opiate receptor (Homo sapiens, UniProt P35372) (assay: Affinity for the human μ opiate receptor ([3H]-naloxone displacement, CHO-K1 membrane preparation, SPA)). Conditions: 1 μM test substance; displacement of [3H]-naloxone.
T1 construct: purchased PerkinElmer Life Sciences, Zaventem, Belgium RB-HOM; host or cells: CHO-K1 cells (recombinant expression)
T1 sequence (P35372 whole entry): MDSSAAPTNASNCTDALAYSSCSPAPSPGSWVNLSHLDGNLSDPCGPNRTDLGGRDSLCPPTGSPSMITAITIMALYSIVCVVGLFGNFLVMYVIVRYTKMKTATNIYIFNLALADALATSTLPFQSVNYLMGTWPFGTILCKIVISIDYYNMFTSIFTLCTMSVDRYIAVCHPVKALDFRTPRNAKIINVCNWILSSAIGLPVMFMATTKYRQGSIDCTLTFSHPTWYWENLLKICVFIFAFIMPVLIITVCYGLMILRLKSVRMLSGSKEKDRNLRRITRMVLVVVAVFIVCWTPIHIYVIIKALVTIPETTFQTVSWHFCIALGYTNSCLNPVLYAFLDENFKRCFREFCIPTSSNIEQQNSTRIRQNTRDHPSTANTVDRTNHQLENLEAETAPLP
Assay type: binding
Description: The receptor affinity for the human μ opiate receptor is determined in a homogeneous set-up in microtitre plates. For this purpose, dilution series of the substances to be tested are incubated with a receptor membrane preparation (15-40 μg of protein/250 μl of incubation batch) of CHO-K1 cells which express the human μ opiate receptor (RB-HOM receptor membrane preparation from PerkinElmer Life Sciences, Zaventem, Belgium) in the presence of 1 nmol/l of the radioactive ligand [^3H]-naloxone (NET719, PerkinElmer Life Sciences, Zaventem, Belgium) and 1 mg of WGA-SPA-Beads (wheat germ agglutinin SPA beads from Amersham/Pharmacia, Freiburg, Germany) in a total volume of 250 μl for 90 minutes at room temperature. 50 mmol/l of Tris-HCl supplemented with 0.06% of bovine serum albumin are used as the incubation buffer. 100 μmol/l of naloxone are additionally added for determination of the non-specific binding. After the end of the ninety-minute incubation time, the microtitre plates are centrifuged for 20 minutes at 1,000 g and the radioactivity is measured in a β-counter (Microbeta-Trilum, PerkinElmer Wallac, Freiburg, Germany). The percentage displacement of the radioactive ligand from its binding to the human μ opiate receptor is determined at a concentration of the test substances of 1 μmol/l and stated as the percentage inhibition of the specific binding. Starting from the percentage displacement by various concentrations of the test substances, IC50 inhibitory concentrations which cause a 50 percent displacement of the radioactive ligand are calculated. By conversion by means of the Cheng-Prusoff relationship, Ki values for the test substances are obtained.

Compound	μ opioid receptor [1 μM], % inhibition [%]
Cc1ccc2[nH]c3c(c2c1)CC(C)OC31CCC(C(CCc2ccccc2)N(C)C)CC1 (centres unmarked) [Compound 43, 3,6-Dimethyl-1,1-[3-(dimethylamino-(phenylethyl)-methyl)-pentamethylene]-1,3,4,9-tetrahydropyrano[3,4-b]indole]	42
CC1Cc2c([nH]c3ccc(F)cc23)C2(CCC(C(c3ccc(Cl)cc3)N(C)C)CC2)O1 (centres unmarked) [Compound 55, 6-Fluoro-3-methyl-1,1-[3-(dimethylamino-(4-chlorophenyl) -methyl)-penta-methylene]-1,3,4,9-tetrahydropyrano[3,4-b]indole]	58

Same assay, conditions: 1 μM test substance; displacement of [3H]-naloxone; read-out: μ opioid receptor [1 μM], % inhibition

Compound	inhibition at 1 µM [%]
CN(C)C(c1cccc(F)c1)C1CCC2(CC1)OCCc1c2[nH]c2ccc(F)cc12 (centres unmarked) [Compound 36, 6-Fluoro-1,1-[3-(dimethylamino-(3-fluorophenyl)-methyl)-pentamethylene]-1,3,4,9-tetrahydropyrano[3,4-b]indole]	102

Same assay, conditions: Cheng-Prusoff conversion from IC50; read-out: μ opioid receptor, Ki

Compound	Ki [nM]
CN(C)C(c1cccc(F)c1)C1CCC2(CC1)OCCc1c2[nH]c2ccc(F)cc12 (centres unmarked) [Compound 36, 6-Fluoro-1,1-[3-(dimethylamino-(3-fluorophenyl)-methyl)-pentamethylene]-1,3,4,9-tetrahydropyrano[3,4-b]indole]	46

Same assay, conditions: compounds prepared via automated synthesis; single measurements at a test concentration of 1 μM

Compound	μ opioid receptor [1 μmol], % inhibition [%]
CN(C)C(c1ccccc1)C1CCC2(CC1)c1[nH]c3ccccc3c1CCN2C(=O)CC(C)(C)C (centres unmarked) [Compound 56, 1-{1,1-[3-(dimethylamino-phenylmethyl)-pentamethylene]-3,4-dihydro-1H-2,9-diazafluoren-2-yl}-3,3-dimethylbutan-1-one]	36
COc1ccc(CC(=O)N2CCc3c([nH]c4ccccc34)C23CCC(C(c2ccccc2)N(C)C)CC3)cc1OC (centres unmarked) [Compound 57, 2-[(3,4-dimethoxyphenyl)acetyl]-{1,1-[3-(dimethylamino-phenylmethyl)-pentamethylene]-3,4-dihydro-1H-2,9-diazafluorene}]	55
CC(=Cc1ccccc1)C(=O)N1CCc2c([nH]c3ccccc23)C12CCC(C(c1ccccc1)N(C)C)CC2 (centres unmarked) [Compound 58, 1-{1,1-[3-(dimethylamino-phenylmethyl)-pentamethylene]-3,4-dihydro-1H-2,9-diazafluoren-2-yl}-2-methyl-3-phenylprop-2-en-1-one]	50
CN(C)C(c1ccccc1)C1CCC2(CC1)c1[nH]c3ccccc3c1CCN2C(=O)C1CCCCC1 (centres unmarked) [Compound 59, 2-(cyclohexylcarbonyl)-{1,1-[3-(dimethylamino-phenylmethyl)-pentamethylene]-3,4-dihydro-1H-2,9-diazafluorene}]	29
CN(C)C(c1ccccc1)C1CCC2(CC1)c1[nH]c3ccccc3c1CCN2C(=O)COc1ccc(Cl)cc1 (centres unmarked) [Compound 60, 2-[(4-chlorophenoxy)acetyl]-{1,1-[3-(dimethylamino-phenylmethyl)-pentamethylene]-3,4-dihydro-1H-2,9-diazafluorene}]	26
CN(C)C(c1ccccc1)C1CCC2(CC1)c1[nH]c3ccccc3c1CCN2C(=O)C=Cc1ccccc1Cl (centres unmarked) [Compound 61, 1-{1,1-[3-(dimethylamino-phenylmethyl)-pentamethylene]-3,4-dihydro-1H-2,9-diazafluoren-2-yl}-3-(2-chlorophenyl)prop-2-en-1-one]	6
CN(C)C(c1ccc(F)cc1)C1CCC2(CC1)c1[nH]c3ccccc3c1CCN2C(=O)CC(C)(C)C (centres unmarked) [Compound 62, 1-{1,1-[3-(dimethylamino-(4-fluorophenyl)methyl) -pentamethylene]-3,4-dihydro-1H-2,9-diazafluoren-2-yl}-3,3-dimethylbutan-1-one]	12
COc1ccc(CC(=O)N2CCc3c([nH]c4ccccc34)C23CCC(C(c2ccc(F)cc2)N(C)C)CC3)cc1OC (centres unmarked) [Compound 63, 2-[(3,4-dimethoxyphenyl)acetyl]-{1,1-[3-(dimethylamino-(4-fluorophenyl)methyl)-pentamethylene]-3,4-dihydro-1H-2,9-diazafluorene}]	29
CC(=Cc1ccccc1)C(=O)N1CCc2c([nH]c3ccccc23)C12CCC(C(c1ccc(F)cc1)N(C)C)CC2 (centres unmarked) [Compound 64, 1-{1,1-[3-(dimethylamino-(4-fluorophenyl)methyl) -pentamethylene]-3,4-dihydro-1H-2,9-diazafluoren-2-yl}-2-methyl-3-phenylprop-2-en-1-one]	15
CN(C)C(c1ccc(F)cc1)C1CCC2(CC1)c1[nH]c3ccccc3c1CCN2C(=O)COc1ccc(Cl)cc1 (centres unmarked) [Compound 65, 2-[(4-chlorophenoxy)acetyl]-{1,1-[3-(dimethylamino-(4-fluorophenyl)methyl)-pentamethylene]-3,4-dihydro-1H-2,9-diazafluorene}]	17
CN(C)C(c1cccc(F)c1)C1CCC2(CC1)c1[nH]c3ccccc3c1CCN2C(=O)CC(C)(C)C (centres unmarked) [Compound 66, 1-{1,1-[3-(dimethylamino-(3-fluorophenyl)methyl) -pentamethylene]-3,4-dihydro-1H-2,9-diazafluoren-2-yl}-3,3-dimethylbutan-1-one]	26
COc1ccc(CC(=O)N2CCc3c([nH]c4ccccc34)C23CCC(C(c2cccc(F)c2)N(C)C)CC3)cc1OC (centres unmarked) [Compound 67, 2-[(3,4-dimethoxyphenyl)acetyl]-{1,1-[3-(dimethylamino-(3-fluorophenyl)methyl)-pentamethylene]-3,4-dihydro-1H-2,9-diazafluorene}]	25
CC(=Cc1ccccc1)C(=O)N1CCc2c([nH]c3ccccc23)C12CCC(C(c1cccc(F)c1)N(C)C)CC2 (centres unmarked) [Compound 68, 1-{1,1-[3-(dimethylamino-(3-fluorophenyl)methyl) -pentamethylene]-3,4-dihydro-1H-2,9-diazafluoren-2-yl}-2-methyl-3-phenylprop-2-en-1-one]	19
CN(C)C(c1cccc(F)c1)C1CCC2(CC1)c1[nH]c3ccccc3c1CCN2C(=O)C1CCCCC1 (centres unmarked) [Compound 69, 2-(cyclohexylcarbonyl)-{1,1-[3-(dimethylamino-(3-fluorophenyl)methyl)-pentamethylene]-3,4-dihydro-1H-2,9-diazafluorene}]	26
CN(C)C(c1cccc(F)c1)C1CCC2(CC1)c1[nH]c3ccccc3c1CCN2C(=O)COc1ccc(Cl)cc1 (centres unmarked) [Compound 70, 2-[(4-chlorophenoxy)acetyl]-{1,1-[3-(dimethylamino-(3-fluorophenyl)methyl)-pentamethylene]-3,4-dihydro-1H-2,9-diazafluorene}]	31
CN(C)C(c1cccc(F)c1)C1CCC2(CC1)c1[nH]c3ccccc3c1CCN2C(=O)C=Cc1ccccc1Cl (centres unmarked) [Compound 72, 1-{1,1-[3-(dimethylamino-(3-fluorophenyl)methyl) -pentamethylene]-3,4-dihydro-1H-2,9-diazafluoren-2-yl}-3-(2-chlorophenyl)prop-2-en-1-one]	24
CN(C)C(c1ccc(Cl)cc1)C1CCC2(CC1)c1[nH]c3ccccc3c1CCN2C(=O)CC(C)(C)C (centres unmarked) [Compound 73, 1-{1,1-[3-(dimethylamino-(4-chlorophenyl)methyl) -pentamethylene]-3,4-dihydro-1H-2,9-diazafluoren-2-yl}-3,3-dimethylbutan-1-one]	24
COc1ccc(CC(=O)N2CCc3c([nH]c4ccccc34)C23CCC(C(c2ccc(Cl)cc2)N(C)C)CC3)cc1OC (centres unmarked) [Compound 74, 2-[(3,4-dimethoxyphenyl)acetyl]-{1,1-[3-(dimethylamino-(4-chlorophenyl)-methyl)-pentamethylene]-3,4-dihydro-1H-2,9-diazafluorene}]	37
CC(=Cc1ccccc1)C(=O)N1CCc2c([nH]c3ccccc23)C12CCC(C(c1ccc(Cl)cc1)N(C)C)CC2 (centres unmarked) [Compound 75, 1-{1,1-[3-(dimethylamino-(4-chlorophenyl)methyl) -pentamethylene]-3,4-dihydro-1H-2,9-diazafluoren-2-yl}-2-methyl-3-phenylprop-2-en-1-one]	13
CN(C)C(c1ccc(Cl)cc1)C1CCC2(CC1)c1[nH]c3ccccc3c1CCN2C(=O)C1CCCCC1 (centres unmarked) [Compound 76, 2-(cyclohexylcarbonyl)-{1,1-[3-(dimethylamino-(4-chlorophenyl)methyl)-pentamethylene]-3,4-dihydro-1H-2,9-diazafluorene}]	15
CN(C)C(c1ccc(Cl)cc1)C1CCC2(CC1)c1[nH]c3ccccc3c1CCN2C(=O)COc1ccc(Cl)cc1 (centres unmarked) [Compound 77, 2-[(4-chlorophenoxy)acetyl]-{1,1-[3-(dimethylamino-(4-chlorophenyl)-methyl)-pentamethylene]-3,4-dihydro-1H-2,9-diazafluorene}]	17
CN(C)C(c1ccc(Cl)cc1)C1CCC2(CC1)c1[nH]c3ccccc3c1CCN2C(=O)c1cc2ccccc2s1 (centres unmarked) [Compound 78, 2-(1-benzothien-2-ylcarbonyl)-{1,1-[3-(dimethylamino-(4-chlorophenyl)-methyl)-pentamethylene]-3,4-dihydro-1H-2,9-diazafluorene}]	11
